Ends that are not written are not given here.
Test system: renin
Format: biochemical, hog
Settings: for Vmax per Goldblatt unit/ml: average over the renin concentrations used; for Km relative to the tetradecapeptide (times larger): ratio of Km values

Row | Substance | Vmax per Goldblatt unit/ml (pH 7.5, 37.5C) | further results
1 | PFHLLVYS | 0.55 x 10-6 M/min per Goldblatt uni | Vm as printed in the Lineweaver-Burk plot of Fig. 4 (value of the figure where it differs from Table I): 0.6 x 10-6 M/min/Goldblatt unit
2 | Val Tyr Ileu His Pro Phe His Leu Leu Val Tyr Ser | 8.9 x 10-6 M/min per Goldblatt uni | Vmax (renin concentration 0.0195 Goldblatt units/ml (so in the source), pH 7.5, 37.5C): 9.1e-07 M/min
3 | HPFHLLV | – | Average Km (mean of the Km values at the two renin concentrations, pH 7.5, 37.5C): eo; Substrate activity with renin (renin 0.183 Goldblatt units/ml, pH 7.5, 37.5C): no hydrolysis occurred
4 | Ileu His Pro Phe His Leu Leu Val Tyr Ser | 10.9 x 10-6 M/min per Goldblatt uni | –
5 | Asp Arg Val Tyr Ileu His Pro Phe His Leu Leu Val Tyr Ser [asp^1-arg^2-val^3-tyr^4-ileu^5-his^6-pro^7-phe^8-his^9-leu^10-leu^11-val^12-tyr^13-ser^14] | 10.2 x 10-6 M/min per Goldblatt uni | –
6 | HPFHLLVY [his^6-pro^7-phe^8-his^9-leu^10-leu^11-val^12-tyr^13] | 7.6 x 10-6 M/min per Goldblatt uni | Km relative to the tetradecapeptide (times larger): ~ 12 times
7 | HPFHLLVYS [his^6-pro^7-phe^8-his^9-leu^10-leu^11-val^12-tyr^13-ser^14] | 11.7 x 10-6 M/min per Goldblatt uni | Km relative to the tetradecapeptide (times larger): ~ 12 times
8 | Tyr Ileu His Pro Phe His Leu Leu Val Tyr Ser | 9.8 x 10-6 M/min per Goldblatt uni | –
9 | NRVYVHPFHLLVYS [reference compound] | 9.1 x 10-6 M/min per Goldblatt uni | –
